From patent US20240381872A1, “SUBSTITUTED 2,3-DIHYDRO[1,3]THIAZOLO[4,5-B]PYRIDINES, SALTS THEREOF AND THEIR USE AS HERBICIDALLY ACTIVE SUBSTANCES” (BAYER AKTIENGESELLSCHAFT, priority 2021, published 2024)

Tests used:
Format in all cases: in vivo
[1] = tested on: Digitaria sanguinalis (DIGSA); assay: Herbicidal pre-emergence action, section A (Table A12); settings: application rate 1280 g/ha
Excerpt: (§1) Seeds of mono- and dicotyledonous weed plants were sown in plastic pots (double sowings with one species of mono- and one species of dicotyledonous weed plants per pot), in sandy loam, and covered with soil. The compounds according to the invention, formulated in the form of wettable powders (WP) or as emulsifiable concentrates (EC), were applied to the surface of the covering soil as aqueous suspension or emulsion, with the addition of 0.5% of an additive, at an application rate of 600 l of water per hectare (converted). Following treatment, the pots were placed in a greenhouse and kept under optimum growth conditions for the test plants. The visual grading of the damage to the test plants was carried out after ca. 3 weeks in comparison to untreated controls (herbicidal effect in percent (%): 100% effect=plants have died off, 0% effect=as control plants).

[2] = tested on: Setaria viridis (SETVI); assay: Herbicidal pre-emergence action, section A (Table A8)
Excerpt: as §1

[3] = tested on: Stellaria media (STEME); assay: Herbicidal pre-emergence action, section A (Table A9); settings: application rate 1280 g/ha
Excerpt: as §1

[4] = tested on: Lolium rigidum (LOLRI); assay: Herbicidal pre-emergence action, section A (Table A5); settings: application rate 1280 g/ha, visual grading after ca. 3 weeks vs untreated controls
Excerpt: as §1

[5] = tested on: Amaranthus retroflexus (AMARE); assay: Herbicidal pre-emergence action, section A (Table A11); settings: application rate 320 g/ha
Excerpt: as §1

[6] = tested on: Poa annua (POAAN); assay: Herbicidal pre-emergence action, section A (Table A7); settings: application rate 1280 g/ha, visual grading after ca. 3 weeks vs untreated controls
Excerpt: as §1

[7] = tested on: Veronica persica (VERPE); assay: Herbicidal post-emergence action, section B (Table B10); settings: visual rating about 3 weeks after treatment vs untreated controls
Method: (§2) Seeds of mono- and dicotyledonous weed plants were placed in plastic pots in sandy loam soil (doubly sown with in each case one species of mono- or dicotyledonous weed plants per pot), covered with soil and cultivated in a greenhouse under controlled growth conditions. 2 to 3 weeks after sowing, the test plants were treated at the one-leaf stage. The compounds of the invention, formulated in the form of wettable powders (WP) or as emulsion concentrates (EC), were applied onto the green parts of the plants as aqueous suspension or emulsion with addition of 0.5% additive at a water application rate of 600 liters per hectare (converted). After the test plants had been kept in the greenhouse under optimum growth conditions for about 3 weeks, the activity of the preparations was rated visually in comparison to untreated controls. For example, 100% activity=the plants have died, 0% activity=like control plants.

[8] = tested on: Echinochloa crus-galli (ECHCG); assay: Herbicidal post-emergence action, section B (Table B3); settings: application rate 1280 g/ha, rated visually after about 3 weeks
Method: as §2

[9] = tested on: Kochia scoparia (KCHSC); assay: Herbicidal post-emergence action, section B (Table B4); settings: visual rating about 3 weeks after treatment vs untreated controls
Method: as §2

[10] = tested on: Amaranthus retroflexus (AMARE); assay: Herbicidal post-emergence action, section B (Table B11); settings: visual rating about 3 weeks after treatment vs untreated controls; for post-emergence activity against AMARE in %: application rate 1280 g/ha
Method: as §2

[11] = tested on: Abutilon theophrasti (ABUTH); assay: Herbicidal post-emergence action, section B (Table B1); settings: application rate 1280 g/ha, rated visually after about 3 weeks
Method: as §2

[12] = tested on: Echinochloa crus-galli (ECHCG); assay: Herbicidal pre-emergence action, section A (Table A3); settings: visual grading after ca. 3 weeks vs untreated controls
Excerpt: as §1

[13] = tested on: Kochia scoparia (KCHSC); assay: Herbicidal pre-emergence action, section A (Table A4); settings: visual grading after ca. 3 weeks vs untreated controls
Excerpt: as §1

[14] = tested on: Veronica persica (VERPE); assay: Herbicidal pre-emergence action, section A (Table A10); settings: Veronica persica, 504 h, application rate 1280 g/ha, read-out: pre-emergence activity against VERPE in %
Excerpt: as §1

[15] = tested on: Poa annua (POAAN); assay: Herbicidal post-emergence action, section B (Table B7); settings: application rate 1280 g/ha, visual rating about 3 weeks after treatment vs untreated controls
Method: as §2

[16] = tested on: Stellaria media (STEME); assay: Herbicidal post-emergence action, section B (Table B9); settings: application rate 1280 g/ha, visual rating about 3 weeks after treatment vs untreated controls
Method: as §2

[17] = tested on: Echinochloa crus-galli (ECHCG); assay: Herbicidal pre-emergence action, section C (Table C3); settings: Echinochloa crus-galli, pre-emergence, 504 h; application rate 320 g/ha; visual grading after ca. 3 weeks vs untreated controls; read-out: pre-emergence activity against ECHCG in %
Excerpt: (§3) Seeds of mono- and dicotyledonous weed plants and crop plants were sown, in plastic or organic planting pots, in sandy loam and covered with soil. The compounds according to the invention, formulated in the form of wettable powders (WP) or as emulsifiable concentrates (EC), were applied to the surface of the covering soil as aqueous suspension or emulsion, with the addition of 0.5% of an additive, at an application rate of 600 l of water/ha (converted). Following treatment, the pots were placed in a greenhouse and kept under optimum growth conditions for the test plants. The visual grading of the damage to the test plants was carried out after ca. 3 weeks in comparison to untreated controls (herbicidal effect in percent (%): 100% effect=plants have died off, 0% effect=as control plants).

[18] = tested on: Triticum aestivum (TRZAS); assay: Pre-emergence effects on crop plants, section D (Table D2); settings: application rate 320 g/ha; visual grading after ca. 3 weeks
Excerpt: (§4) Seeds of mono- and dicotyledonous weed plants and crop plants were sown, in plastic or organic planting pots, in sandy loam and covered with soil. The compounds according to the invention, formulated in the form of wettable powders (WP) or as emulsifiable concentrates (EC), were applied to the surface of the covering soil as aqueous suspension or emulsion, with the addition of 0.5% of an additive, at an application rate of 600 l of water/ha (converted).
(§5) Following treatment, the pots were placed in a greenhouse and kept under optimum growth conditions for the test plants. The visual grading of the damage to the test plants was carried out after ca. 3 weeks in comparison to untreated controls (herbicidal effect in percent (%): 100% effect=plants have died off, 0% effect=as control plants).
(§6) Tables D1 to D5 below show the effects of various compounds of the general formula (I) according to Table 1 on various crop plants and an application rate corresponding to 320 g/ha or below obtained by the experimental procedure mentioned above in Biological Examples, Section C.

[19] = tested on: Zea mays (ZEAMX); assay: Post-emergence effects on crop plants, section F (Table F1); settings: Zea mays, 504 h, application rate 80 g/ha, read-out: post-emergence activity against ZEAMX in %
Excerpt: (§7) Seeds of mono- and dicotyledonous weed plants and crop plants were sown, in plastic or organic planting pots, in sandy loam, covered with soil and grown in a greenhouse under controlled growth conditions. 2 to 3 weeks after sowing, the test plants were sprayed in the single-leaf stage. The compounds according to the invention, formulated in form of wettable powders (WP) or as emulsifiable concentrates (EC), were sprayed onto the green plant parts as aqueous suspension or emulsion, with the addition of 0.5% of an additive, at an application rate of 600 l of water/ha (converted). The test plants were placed in the greenhouse for ca. 3 weeks under optimum growth conditions, and then the effect of the preparations was assessed visually in comparison with untreated controls (herbicidal effect in percent (%): 100% effect=plants have died off, 0% effect=as control plants). Tables F1 to F4 below show the effects of selected compounds of the general formula (I) according to Table 1 on various crop plants and an application rate corresponding to 320 g/ha or below obtained by the experimental procedure mentioned above.

[20] = tested on: Glycine max (GLXMA); assay: Post-emergence effects on crop plants, section F (Table F4); settings: Glycine max, 504 h, application rate 320 g/ha, read-out: post-emergence activity against GLXMA in %
Excerpt: as §7

[21] = tested on: Digitaria sanguinalis (DIGSA); assay: Herbicidal pre-emergence action, section C (Table C12); settings: Digitaria sanguinalis, pre-emergence, 504 h; application rate 320 g/ha; visual grading after ca. 3 weeks; read-out: pre-emergence activity against DIGSA in %
Excerpt: as §3

[22] = tested on: Triticum aestivum (TRZAS); assay: Post-emergence effects on crop plants, section F (Table F2); settings: Triticum aestivum, 504 h, application rate 320 g/ha, read-out: post-emergence activity against TRZAS in %
Excerpt: as §7

[23] = tested on: Zea mays (ZEAMX); assay: Pre-emergence effects on crop plants, section D (Table D1); settings: application rate 320 g/ha; visual grading after ca. 3 weeks
Excerpt: as §4, §5, §6

[24] = tested on: Setaria viridis (SETVI); assay: Herbicidal pre-emergence action, section C (Table C8); settings: Setaria viridis, pre-emergence, 504 h; application rate 320 g/ha; visual grading after ca. 3 weeks; read-out: pre-emergence activity against SETVI in %
Excerpt: as §3

[25] = tested on: Matricaria inodora (MATIN); assay: Herbicidal pre-emergence action, section A (Table A6); settings: application rate 1280 g/ha; visual grading after ca. 3 weeks vs untreated controls
Excerpt: as §1

Structure (SMILES): CCCC(=O)N1CSc2cc(Br)c(-c3ccccc3Cl)nc21 [Example I-042, 1-[6-bromo-5-(2-chlorophenyl)[1,3]thiazolo[4,5-b]pyridin-3(2H)-yl]butan-1-one]
- pest or weed control at 1280 g/ha ([1]; Digitaria sanguinalis, 504 h, read-out: pre-emergence activity against DIGSA in %): 100%
- pest or weed control at 1280 g/ha ([2]; Setaria viridis, 504 h, application rate 1280 g/ha, read-out: pre-emergence activity against SETVI in %): 100%
- pest or weed control at 1280 g/ha ([3]; Stellaria media, 504 h, read-out: pre-emergence activity against STEME in %): 90%
- pest or weed control at 1280 g/ha ([4]; Lolium rigidum, pre-emergence, 504 h, read-out: pre-emergence activity against LOLRI in %): 90%
- pest or weed control at 320 g/ha ([5]; Amaranthus retroflexus, 504 h, read-out: pre-emergence activity against AMARE in %): 90%
- pest or weed control at 1280 g/ha ([6]; Poa annua, pre-emergence, 504 h, read-out: pre-emergence activity against POAAN in %): 100%
- pest or weed control at 1280 g/ha ([7]; Veronica persica, post-emergence, 504 h, application rate 1280 g/ha, read-out: post-emergence activity against VERPE in %): 90%
- pest or weed control at 1280 g/ha ([8]; Echinochloa crus-galli, 504 h, read-out: post-emergence activity against ECHCG in %): 90%
- pest or weed control at 320 g/ha ([9]; Bassia scoparia, post-emergence, 504 h, application rate 320 g/ha, read-out: post-emergence activity against KCHSC in %): 90%
- pest or weed control at 320 g/ha ([10]; Amaranthus retroflexus, post-emergence, 504 h, application rate 320 g/ha, read-out: post-emergence activity against AMARE in %): 90%
- pest or weed control at 1280 g/ha ([11]; Abutilon theophrasti, 504 h, read-out: post-emergence activity against ABUTH in %): 90%
- pest or weed control at 1280 g/ha ([12]; Echinochloa crus-galli, pre-emergence, 504 h, application rate 1280 g/ha, read-out: pre-emergence activity against ECHCG in %): 100%
- pest or weed control at 320 g/ha ([13]; Bassia scoparia, pre-emergence, 504 h, application rate 320 g/ha, read-out: pre-emergence activity against KCHSC in %): 90%
- pest or weed control at 1280 g/ha [14]: 90%
- pest or weed control at 1280 g/ha ([15]; Poa annua, post-emergence, 504 h, read-out: post-emergence activity against POAAN in %): 90%
- pest or weed control at 1280 g/ha ([16]; Stellaria media, post-emergence, 504 h, read-out: post-emergence activity against STEME in %): 90%

Structure (SMILES): COC(=O)CCC(=O)N1CSc2cc(Br)c(-c3ccc(F)cc3F)nc21 [Example I-085]
- pre-emergence activity against SETVI in % ([2]; application rate 1280 g/ha): 100%
- pre-emergence activity against POAAN in % [6]: 100%
- post-emergence activity against VERPE in % ([7]; application rate 320 g/ha): 100%
- post-emergence activity against ECHCG in % [8]: 90%
- post-emergence activity against AMARE in % [10]: 90%
- post-emergence activity against ABUTH in % [11]: 90%
- post-emergence activity against POAAN in % [15]: 90%
- post-emergence activity against STEME in % [16]: 90%

Structure (SMILES): COC(=O)CCC(=O)N1CSc2cc(Br)c(-c3sccc3Cl)nc21 [Example I-077, methyl 4-[6-bromo-5-(3-chloro-2-thienyl)-2H-thiazolo[4,5-b]pyridin-3-yl]-4-oxo-butanoate]
- pest or weed control at 320 g/ha [17]: 90%
- pre-emergence activity against TRZAS in % (crop plant damage) [18]: 0%
- percent crop plant damage (phytotoxicity) on Zea mays, post-emergence at 80 g/ha [19]: 0%
- percent crop plant damage at 320 g/ha [20]: 10%
- pest or weed control at 320 g/ha [21]: 90%
- percent crop plant damage (wheat, post-emergence) at 320 g/ha [22]: 20%
- pre-emergence activity against ZEAMX in % (crop plant damage) [23]: 10%
- pest or weed control at 320 g/ha [24]: 90%

Structure (SMILES): Cc1cccc(F)c1-c1nc2c(cc1Br)SCN2 [Example I-032]
- pre-emergence activity against DIGSA in % [1]: 100%
- pre-emergence activity against SETVI in % ([2]; application rate 320 g/ha): 100%
- pre-emergence activity against STEME in % [3]: 100%
- pre-emergence activity against LOLRI in % [4]: 100%
- pre-emergence activity against AMARE in % [5]: 90%
- pre-emergence activity against POAAN in % [6]: 100%
- post-emergence activity against KCHSC in % ([9]; application rate 1280 g/ha): 90%
- post-emergence activity against AMARE in % [10]: 90%
- post-emergence activity against ABUTH in % [11]: 90%
- pre-emergence activity against ECHCG in % ([12]; application rate 320 g/ha): 100%
- pre-emergence activity against KCHSC in % ([13]; application rate 1280 g/ha): 90%
- pre-emergence activity against MATIN in % [25]: 90%
- post-emergence activity against STEME in % [16]: 90%
